Laboratory results reported in US8431536B2, “Target for breast cancer therapy and/or diagnosis” (The University of Queensland, priority 2007, dated 2013).

Test system: MCF-7 breast cancer cells
Test: MTS proliferation/viability assay in MCF-7 breast cancer cells
Format: cell-based
Settings: 50 μM, treated on plating in 10% foetal bovine serum, MTS 72 hrs after plating, p<0.05 vs methanol control (FIG. 8)
Description: FIG. 6 The effect of siRNA to CRACM1 (96 hrs) on the viability of MCF-7 cells, as measured by an MTS assay for cellular proliferation. Normalized MTS absorbance (proliferation/viability) of the mean of 3 independent experiments in MCF-7 breast cancer cells (±SEM). For each experiment absorbance was assessed in quadruplicate. Experiment was performed in 1% foetal bovine serum (p<0.05).
FIG. 8 MTS assay of MCF-7 cells treated with 50 μM 2-APB. * p<0.05 compared with respective methanol control. Error bars=SD. Cells were treated with 2-APB on plating in 10% foetal bovine serum. MTS assay was performed 72 hrs after plating.

NCCOB(c1ccccc1)c1ccccc1 [2-APB, 2-aminoethoxydiphenyl borate]
proliferation/viability of MCF-7 cells (MTS assay): inhibits the proliferation/viability of MCF-7 breast
